Residues, ends and D or L forms follow the SMILES beside them.
Test system: patients with chronic constipation
Test: Trial 2 four-week Randomized Withdrawal Period
Assay type: in vivo, human
Parameters: Straining, Change From Baseline, Mean / Abdominal Discomfort, Change From Baseline, Mean / Bloating, Change From Baseline, Mean / Constipation Severity, Change From Baseline, Mean / Global Relief of Constipation Symptoms, Change From Baseline, Mean: scale not given here
Conditions: for Abdominal Discomfort, Change From Baseline, Mean / Bloating, Change From Baseline, Mean / Constipation Severity, Change From Baseline, Mean / Global Relief of Constipation Symptoms, Change From Baseline, Mean / Stool Consistency (BSFS), Change From Baseline, Mean / Straining, Change From Baseline, Mean / Weekly CSBM Rate, Change From Baseline, Mean / Weekly SBM Rate, Change From Baseline, Mean: RW Period
Procedure: Trial 2 was conducted in 642 patients and was identical to Trial 1 except that Trial 2 also included a four-week Randomized Withdrawal Period, defined below. During the two-week pretreatment (baseline) period, 68 percent of patients in Trial 2 had no CSBMs.
The Randomized Withdrawal (RW) Period is defined as the 4 weeks immediately following the Treatment Period. The beginning of the RW Period coincides with the end of the Treatment Period. Patients who were randomized to linaclotide in the Treatment Period and complete the 12 weeks of the Treatment Period were randomized to treatment with linaclotide or placebo in the RW Period. Patients who were randomized to placebo in the Treatment Period and complete the 12 weeks of the Treatment Period received 133 μg or 266 μg linaclotide in the RW Period.

## C[C@@H]1NC(=O)[C@@H]2CCCN2C(=O)[C@H](CC(N)=O)NC(=O)[C@@H]2CSSC[C@H](N)C(=O)N[C@H]3CSSC[C@H](NC1=O)C(=O)N[C@@H]([C@@H](C)O)C(=O)NCC(=O)N[C@H](C(=O)N[C@@H](Cc1ccc(O)cc1)C(=O)O)CSSC[C@H](NC(=O)[C@H](Cc1ccc(O)cc1)NC(=O)[C@H](CCC(=O)O)NC3=O)C(=O)N2 [Linaclotide, Cys1 Cys2 Glu3 Tyr4 Cys5 Cys6 Asn7 Pro8 Ala9 Cys10 Thr11 Gly12 Cys13 Tyr14] (HELM PEPTIDE1{C.C.E.Y.C.C.N.P.A.C.T.G.C.Y}$PEPTIDE1,PEPTIDE1,1:R3-6:R3|PEPTIDE1,PEPTIDE1,2:R3-10:R3|PEPTIDE1,PEPTIDE1,5:R3-13:R3$$$V2.0)
133 μg/133 μg (n = 90)
  Abdominal Discomfort, Change From Baseline, Mean: −0.5
  Bloating, Change From Baseline, Mean: −0.4
  Constipation Severity, Change From Baseline, Mean: −0.9
  Global Relief of Constipation Symptoms, Change From Baseline, Mean: −1.3
  Stool Consistency (BSFS), Change From Baseline, Mean: 1.9
  Straining, Change From Baseline, Mean: −1.1
  Weekly CSBM Rate, Change From Baseline, Mean: 2.1
  Weekly SBM Rate, Change From Baseline, Mean: 3.0
133 μg/Placebo (n = 95)
  Abdominal Discomfort, Change From Baseline, Mean: −0.4
  Bloating, Change From Baseline, Mean: −0.4
  Constipation Severity, Change From Baseline, Mean: −0.5
  Global Relief of Constipation Symptoms, Change From Baseline, Mean: −0.7
  Stool Consistency (BSFS), Change From Baseline, Mean: 1.0
  Straining, Change From Baseline, Mean: −0.8
  Weekly CSBM Rate, Change From Baseline, Mean: 1.0
  Weekly SBM Rate, Change From Baseline, Mean: 1.2
266 μg/266 μg (n = 90)
  Abdominal Discomfort, Change From Baseline, Mean: −0.7
  Bloating, Change From Baseline, Mean: −0.6
  Constipation Severity, Change From Baseline, Mean: −0.9
  Global Relief of Constipation Symptoms, Change From Baseline, Mean: −1.3
  Stool Consistency (BSFS), Change From Baseline, Mean: 1.6
  Straining, Change From Baseline, Mean: −1.3
  Weekly CSBM Rate, Change From Baseline, Mean: 2.2
  Weekly SBM Rate, Change From Baseline, Mean: 2.5
266 μg/Placebo (n = 86)
  Abdominal Discomfort, Change From Baseline, Mean: −0.4
  Bloating, Change From Baseline, Mean: −0.2
  Constipation Severity, Change From Baseline, Mean: −0.5
  Global Relief of Constipation Symptoms, Change From Baseline, Mean: −0.8
  Stool Consistency (BSFS), Change From Baseline, Mean: 0.8
  Straining, Change From Baseline, Mean: −0.8
  Weekly CSBM Rate, Change From Baseline, Mean: 0.9
  Weekly SBM Rate, Change From Baseline, Mean: 1.3
Placebo/266 μg (n = 177)
  Abdominal Discomfort, Change From Baseline, Mean: −0.5
  Bloating, Change From Baseline, Mean: −0.5
  Constipation Severity, Change From Baseline, Mean: −1.0
  Global Relief of Constipation Symptoms, Change From Baseline, Mean: −1.3
  Stool Consistency (BSFS), Change From Baseline, Mean: 1.9
  Straining, Change From Baseline, Mean: −1.2
  Weekly CSBM Rate, Change From Baseline, Mean: 2.1
  Weekly SBM Rate, Change From Baseline, Mean: 3.7
Randomized Withdrawal Period
  bowel and abdominal symptoms and global assessments in patients continuing treatment: sustained improvements
  frequencies of adverse events following discontinuing of treatment: no evidence of rebound of CC symptoms or increase in the frequencies of adverse events
  rebound of CC symptoms following discontinuing of treatment: no evidence of rebound of CC symptoms
Randomized Withdrawal Period, placebo then linaclotide
  CC symptoms in patients initiating linaclotide treatment: marked improvement
Randomized Withdrawal Period, versus those receiving linaclotide during first 4 weeks of Treatment Period
  incidence of adverse events in patients initiating linaclotide treatment: similar
Linaclotide for 12 weeks, re-randomized to placebo during 4 week withdrawal period
  CSBM and SBM rates versus baseline rates after withdrawal: no decreases in CSBM (FIG. 2) or SBM rates (FIG. 3) below the baseline rates

From patent US20140349948A1, “Treatment of Chronic Constipation” (Forest Laboratories Holdings Limited, priority 2009, published 2014)
